Experimental data from patent US10155021B2, “Antimicrobial 4-oxoquinolizines” (Emergent Product Development Gaithersburg Inc., priority 2011, dated 2018).
Values after ≈ are worked out from the molar mass of the structure shown.

Tests used:
Assay in all cases: microbe, parasite or virus in culture
Assay type in all cases: cell-based
[1] = system: B. abortus; settings: Brucella abortus, read-out: MIC B. abortus
[2] = system: B. anthracis; settings: Bacillus anthracis, read-out: MIC B. anthracis
[3] = system: F. tularensis; settings: Francisella tularensis, read-out: MIC F. tularensis
[4] = system: B. pseudomallei; settings: Burkholderia pseudomallei, read-out: MIC B. pseudomallei

Cc1c(-c2cccc(N)c2)ccn2c(=O)c(C(=O)O)cc(C3CC3)c12 [Compound 9, 8-(3-amino-phenyl)-1-cyclopropyl-9-methyl-4-oxo-quinolizine-3-carboxylic acid]
MIC [1]: 0.25 µg/mL (≈ 0.748 µM)
MIC [2]: 0.06 µg/mL (≈ 0.179 µM)
MIC [3]: 0.125 µg/mL (≈ 0.374 µM)
MIC [4]: 0.5 µg/mL (≈ 1.5 µM)
